From patent US7022736B2, “Enzyme inhibitors” (Istituto Di Ricerche Di Biologia Molecolare P Angeletti SpA, priority 1998, dated 2006)
Where two headings read alike, the source gives them in different places.

Molecular target: T1, HCV RdRp (NS5B RNA-dependent RNA polymerase) (Hepatitis C virus genotype 1b, UniProt P26663)
T1 construct: The HCV NS5B protein is the viral RdRp; made in house; host or cells: insect cells infected with recombinant baculovirus
Experiment: Inhibition of hepatitis C virus RdRp (poly(A)/oligo(U), [3H]UTP incorporation)
Type: biochemical
Procedure: In initial tests, the compounds were tested to see if they were effective as inhibitors of the RNA-dependent RNA polymerase (RdRp) of hepatitis C virus (HCV). The HCV NS5B protein is the viral RdRp; compounds capable of interfering with the activity of this enzyme are thus expected to block viral replication.
Test for Inhibition of Hepatatis C Virus RdRp
WO96/37619 describes the production of recombinant HCV RdRp from insect cells infected with recombinant baculovirus encoding the enzyme. […] The reference describes a polymerisation assay using poly (A) as a template and oligo (U) as a primer. Incorporation of tritiated UTP is quantified by measuring acid-insoluble radioactivity. The present inventors have employed this assay to screen the various compounds described above as inhibitors of HCV RdRp and other virally encoded polymerases.
Incorporation of radioactive UMP was measured as follows. The standard reaction (100 μl) was carried out in a buffer containing 20 mM tris/HCl pH 7.5, 5 mM MgCl2, 1 mM DTT, 50 mM NaCl, 1 mM EDTA, 2 OU Rnasin (Promega), 0.05% Triton X-100, 1 μCi[^3H] UTP (40 Ci/mmol,NEN), 10 μM UTP and 10 μg/ml poly (A). Oligo (U)12 (1 μg/ml, Genset) was added as a primer. The final NSSB enzyme concentration was 20 nM. After 1 hour incubation at 22° C. the reaction was stopped by adding 100 μl of 20% TCA and applying samples to DE81 filters. The filters were washed thoroughly with 5% TCA containing 1M Na2HPO4/NaH2PO4, pH 7.0, rinsed with water and then ethanol, air dried, and the filter-bound radioactivity was measured in the scintillation counter. By carrying out the reaction in the presence of various concentrations of each of the compounds set out above it was possible to determine IC50 values for each compound with the formula: % residual activity=100/(1+[I]/IC50)^s where [I] is the inhibitor concentration and “s” is the slope of the inhibition curve. Test for Inhibition of Hepatitis B Virus Polymerase

[1] = Tables I-VIII, 20 nM NS5B, 1 hour at 22° C., read-out: IC 50 (μM), HCV-polymerase
[2] = Tables IXa-IXc, unit inferred, read-out: HCV (IC50)

T1 sequence (P26663 2420-3010): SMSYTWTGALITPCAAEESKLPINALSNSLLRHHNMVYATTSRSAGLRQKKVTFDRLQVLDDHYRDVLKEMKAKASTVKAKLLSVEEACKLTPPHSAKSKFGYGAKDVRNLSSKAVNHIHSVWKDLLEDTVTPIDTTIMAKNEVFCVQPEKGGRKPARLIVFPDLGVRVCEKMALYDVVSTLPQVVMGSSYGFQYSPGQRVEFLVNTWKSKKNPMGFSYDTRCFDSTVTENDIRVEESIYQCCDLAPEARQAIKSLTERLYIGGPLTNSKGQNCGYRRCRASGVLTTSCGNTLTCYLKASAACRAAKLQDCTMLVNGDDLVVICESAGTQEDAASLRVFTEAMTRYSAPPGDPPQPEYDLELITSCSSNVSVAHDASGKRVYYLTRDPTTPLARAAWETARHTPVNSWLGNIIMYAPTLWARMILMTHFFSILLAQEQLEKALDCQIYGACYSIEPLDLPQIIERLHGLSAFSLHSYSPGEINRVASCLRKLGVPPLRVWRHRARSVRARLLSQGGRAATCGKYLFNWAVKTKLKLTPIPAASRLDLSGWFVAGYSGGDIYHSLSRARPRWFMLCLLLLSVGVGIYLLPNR

O=C(O)C(O)=CC(=O)c1cccc(NCc2cccc(C(=O)O)c2)c1 [Example 79]
IC50 [1]: 6 µM

O=C(O)C(O)=CC(=O)c1cccc(NC(=O)c2ccccc2Cl)c1 [Example 85]
IC50 [1]: 13 µM

O=C(O)C(O)=CC(=O)c1cccc(OCc2ccc(F)cc2Cl)c1 [Example 87]
IC50 [1]: 2.3 µM

O=C(O)C(O)=CC(=O)c1cccc(S(=O)(=O)Nc2ccc(Cl)cc2)c1 [Example 145]
IC50 [1]: 1.2 µM

Nc1cccc(C(=O)C=C(O)C(=O)O)c1 [Example 62]
IC50 [1]: 10 µM

O=C(O)C(O)=CC(=O)c1cccn1Cc1ccc(O)cc1 [Example 179]
IC50 [1]: 12.8 µM | IC50 [2]: 12.8 µM

O=C(O)C(O)=CC(=O)c1cccc(OCC2CCCCC2)c1 [Example 10]
IC50 [1]: 20 µM

O=C(O)C(O)=CC(=O)c1csc2ccccc12 [Example 236]
IC50 [1]: 26 µM

O=C(O)C(O)=CC(=O)c1cc(I)cn1Cc1ccc(F)cc1 [Example 190]
IC50 [1]: 18 µM | IC50 [2]: 18 µM

O=C(O)C(O)=CC(=O)c1cccc(NS(=O)(=O)c2ccc(C(F)(F)F)cc2Cl)c1 [Example 115]
IC50 [1]: 3.7 µM

O=C(O)C(O)=CC(=O)c1cccn1CCCc1ccc(F)cc1 [Example 187]
IC50 [1]: 36 µM

Cc1cc(Cl)cc(Cl)c1S(=O)(=O)Nc1cccc(C(=O)C=C(O)C(=O)O)c1 [Example 150]
IC50 [1]: 2.3 µM

O=C(O)C(O)=CC(=O)C1(c2ccccc2)CCN(S(=O)(=O)c2cc(Cl)c(Cl)cc2Cl)CC1 [Example 251]
IC50 [1]: 21 µM

O=C(O)C(O)=CC(=O)c1cccc(Oc2ccccc2)c1 [Example 44]
IC50 [1]: 18.5 µM

Cn1cc(C(=O)C=C(O)C(=O)O)cc1Cc1cccc(F)c1 [Example 221]
IC50 [1]: 20.6 µM

O=C(O)C(O)=CC(=O)c1cccn1Cc1ccccc1Cl [Example 186]
IC50 [1]: 24 µM

O=C(O)C(O)=CC(=O)c1cccc(NS(=O)(=O)c2c(Cl)cc(Cl)cc2Cl)c1 [Example 148]
IC50 [1]: 0.26 µM

O=C(O)C(O)=CC(=O)c1sccc1Sc1cccc(F)c1 [Example 213]
IC50 [1]: 5.9 µM

N#Cc1ccccc1Cn1cccc1C(=O)C=C(O)C(=O)O [Example 184]
IC50 [1]: 6.7 µM

O=C(O)C(O)=CC(=O)c1cccc(OCc2ccc(C(=O)O)cc2Cl)c1 [Example 100]
IC50 [1]: 7.8 µM

O=C(O)C(O)=CC(=O)c1cccc(OCc2cccnc2)c1 [Example 71]
IC50 [1]: 10.6 µM

O=C(O)C(O)=CC(=O)c1cccc(NC(=O)c2ccccc2)c1 [Example 66]
IC50 [1]: 11 µM | IC50 [2]: 11 µM

O=C(O)C(O)=CC(=O)c1ccc(Br)s1 [Example 198]
IC50 [1]: 7.9 µM | IC50 [2]: 7.9 µM

O=C(O)C(O)=CC(=O)c1cccc(OCc2ccc(-c3ccccc3)cc2)c1 [Example 96]
IC50 [1]: 50 µM

CCCCS(=O)(=O)N1CCCC(Cc2ccc(Cl)cc2)(C(=O)C=C(O)C(=O)O)C1 (stereo not shown) [Example 245]
IC50 [1]: 81.4 µM

CC1=CCC(C(=O)C=C(O)C(=O)O)CC1 (stereo not shown) [Example 242]
IC50 [1]: 12.8 µM

N#CC(CCOc1ccccc1C(=O)C=C(O)C(=O)O)(c1ccccc1)c1ccccc1 [Example 69]
IC50 [1]: 14 µM

O=C(O)C(O)=CC(=O)c1cccn1Cc1cccc(F)c1 [Example 181]
IC50 [1]: 30 µM

CC(C)(C)OC(=O)c1sccc1COc1cccc(C(=O)C=C(O)C(=O)O)c1 [Example 82]
IC50 [1]: 19 µM

N#Cc1ccccc1COc1cccc(C(=O)C=C(O)C(=O)O)c1 [Example 64]
IC50 [1]: 0.23 µM | IC50 [2]: 0.23 µM

O=C(O)C(O)=CC(=O)c1cccc(OCc2cccc3ccccc23)c1 [Example 132]
IC50 [1]: 0.67 µM

O=C(O)C(O)=CC(=O)c1cccn1Cc1ccc(F)cc1 [Example 180]
IC50 [1]: 93 µM

O=C(O)C(O)=CC(=O)c1cccc(OCc2cccc[n+]2[O-])c1 [Example 105]
IC50 [1]: 13.7 µM

Cc1ccc(S(=O)(=O)Nc2cccc(C(=O)C=C(O)C(=O)O)c2)cc1Cl [Example 137]
IC50 [1]: 0.9 µM

O=C(O)C(O)=CC(=O)c1cccc(NS(=O)(=O)c2ccccc2Br)c1 [Example 77]
IC50 [1]: 4.8 µM

O=C(NCCc1ccccc1)Nc1cccc(C(=O)C=C(O)C(=O)O)c1 [Example 121]
IC50 [1]: 4 µM

O=C(O)C(O)=CC(=O)c1cccc(COc2ccccc2)c1 [Example 110]
IC50 [1]: 30 µM

O=C(O)C(O)=CC(=O)c1cccc(OCc2c(Cl)cccc2Cl)c1 [Example 139]
IC50 [1]: 1.4 µM

Cc1cc(C)c(C(=O)C=C(O)C(=O)O)s1 [Example 192]
IC50 [1]: 8.2 µM | IC50 [2]: 8.2 µM

O=C(O)C(O)=CC(=O)c1cccc(NS(=O)(=O)c2ccc3ccccc3c2)c1 [Example 114]
IC50 [1]: 0.5 µM
